Test results as given in ChEMBL document CHEMBL2150902, “Novel AI-2 quorum sensing inhibitors in Vibrio harveyi identified through structure-based virtual screening” (Bioorg Med Chem Lett, 2012).

Experiments:
Vibrio harveyi = test: Growth inhibition of Vibrio harveyi MM32 by spectrophotometry; assay type: organism-based; settings: in vivo
[1] = Inhibition of LuxP/LuxQ mediated AI2-dependent quorum sensing in Vibrio harveyi MM32 incubated for 4 to 6 hrs measured every 30 mins by luminescence assay

| IC50 [1] [µM] | Structure (SMILES) | growth inhibition (GI) (Vibrio harveyi) |
| --- | --- | --- |
| 3.42 | CSc1nccc(Oc2ccccc2Cl)n1 | Non-toxic |
| 3.06 | C=CCOC(=O)C1=CS(=O)(=O)c2ccccc21 | Toxic |
| 40.1 | O=C(O)c1ccc(-c2c(Cl)cc([N+](=O)[O-])cc2Cl)o1 | Non-toxic |
| 5.51 | Cn1cnnc1SCC(=O)Nc1nc2ccccc2s1 | Non-toxic |
| 41 | CSC1=CS(=O)(=O)c2ccccc21 | Toxic |
| 19.8 | Cc1cc(=O)n2nc(N)c(/N=N/c3ccccc3)c2[nH]1 | Toxic |
| 14.8 | Fc1ccccc1-c1ccc(CNCc2ccco2)o1 | Toxic |
